Experimental data from PubChem BioAssay (NCI).
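The compound was tested at five concentrations on cells cultured in 96-well plates, with a 48-hour exposure period. At the GI50, growth is halved. TGI denotes the concentration required for complete inhibition of growth.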

Experiments:
Test in all cases: growth of human tumour cells (NCI), 48 h
HOP-92 NSCLC = system: HOP-92 NSCLC
SK-MEL-28 melanoma = system: SK-MEL-28 melanoma
HCC-2998 colon = system: HCC-2998 colon
OVCAR-5 ovarian = system: OVCAR-5 ovarian
SR leukemia = system: SR leukemia
HCT-116 colon = system: HCT-116 colon
SF-539 CNS = system: SF-539 CNS
CAKI-1 renal = system: CAKI-1 renal
SK-MEL-2 melanoma = system: SK-MEL-2 melanoma
OVCAR-3 ovarian = system: OVCAR-3 ovarian

Structure (SMILES)	GI50 (HOP-92 NSCLC) [µM]	TGI (HOP-92 NSCLC) [µM]	GI50 (SK-MEL-28 melanoma) [µM]	TGI (SK-MEL-28 melanoma) [µM]	GI50 (HCC-2998 colon) [µM]	TGI (HCC-2998 colon) [µM]	GI50 (OVCAR-5 ovarian) [µM]	TGI (OVCAR-5 ovarian) [µM]	GI50 (SR leukemia) [µM]	GI50 (HCT-116 colon) [µM]	TGI (HCT-116 colon) [µM]	GI50 (SF-539 CNS) [µM]	TGI (SF-539 CNS) [µM]	GI50 (CAKI-1 renal) [µM]	TGI (CAKI-1 renal) [µM]	GI50 (SK-MEL-2 melanoma) [µM]	TGI (SK-MEL-2 melanoma) [µM]	GI50 (OVCAR-3 ovarian) [µM]	TGI (OVCAR-3 ovarian) [µM]	TGI (SR leukemia) [µM]
COc1cc(C2=NOC(c3cc(OC)c(OC)c(OC)c3)C2)ccc1OCCCCOc1cc2c(cc1OC)C(=O)N1CCC[C@H]1C=N2 (stereo partly drawn)	0.339	3.08	0.229	0.49	0.192	0.367	0.4	1.26	0.279	0.216	0.575	0.277	0.894	0.245	0.631	0.241	0.612	0.322	2.51	
O=C(N/N=C/c1ccccc1O)c1ccccc1Nc1ccnc(C(F)(F)F)c1	0.388	10.9	1.71	> 88.1	0.388	24.7	4.34	> 92.3	0.197	0.414	20.9	0.545	11.3	0.337	10.3	3.61	> 60.5	0.45	22.6	
O=C(/C=C/c1c(O)ccc2ccccc12)c1cccc(O)c1		99.5		> 100		> 100		> 100			> 100		> 100		> 100		> 100		> 100	> 100
CC[C@@H]1CN(C)[C@H]2Cc3c([nH]c4ccccc34)C(=O)C[C@H]1C2C(=O)OC (stereo partly drawn)		> 100		> 100		> 100		> 100			> 100		> 100		> 100		> 100		> 100	> 100
CC(C)(C)OC(=O)N1CCc2c(sc3ncnc(N/N=C/c4cccc5ccccc45)c23)C1	2.78	92.3	7.78	> 100	12.9	> 100	4.71	> 100	2.82	3.22	30.4	2.72	8.59	3.35	> 100	4.38	25.9	3.95	77.7	16
CCOc1cc2c(Cl)ncnc2c(OCC)c1OCC	3.67	14.2	2.15	5.26	1.88	3.59	17.9	33.4	1.18	3.39	11.9	14	27.8	1.56	3.03	3.61	10.3	4	10.8	4.31
NC(=O)C(=O)N/N=C(\CC1(O)C(=O)Nc2ccccc21)c1ccc2ccccc2c1 (stereo not drawn)		87.8		> 100		87.9		> 100			21.2		> 100		> 100		48.5		67.3	44.5
CCCCN=C(NC#N)NCCCC		> 100		> 100		> 100		> 100			> 100		> 100		> 100		> 100		> 100	> 100
CCN(CC)c1ccc(/C=C/c2ccc3cc(C)ccc3[n+]2CC)cc1	0.147	0.87	0.279	2.19	0.197	15.3	0.309	16.8	0.09	0.033	2.57	0.172	10.9	2.03	12	0.173	0.71	0.075	0.995	2.28
COC(=O)C1Cc2c(n(Cc3ccccc3)c3ccccc23)C(CCC(=O)O)N1C(C)C (stereo not drawn)		> 100		> 100		> 100		> 100			> 100		> 100		> 100		> 100		> 100	> 100
COC(=O)[C@]12CC[C@@H](C)[C@H](C)[C@@H]1C1=CC[C@@H]3[C@@]4(C)C/C(=N\O)[C@H](O)[C@@]5(C)COC(=C45)C[C@@]3(C)[C@]1(C)CC2	2.98	10.3	15	33.7	11.5	24.9	15.9	33.6	2.33	2.42	7.11	9.05	22.4	11.2	24.7	13.4	28.9	5.47	18.2	5.77
COc1cc(C2NC(=O)c3ccccc3N2)ccc1OCCCCCOc1c(OC)cc(C2=NOC(c3cc(OC)c(OC)c(OC)c3)C2)cc1OC (stereo not drawn)	60.2	> 100	4.13	> 100	1.14	37.8	33.9	> 94.3	0.947	0.433	32.4	19.4	84.7	> 42.4	> 100	35.9	> 100	12.6	44	> 100
O=C1Nc2c(C(F)(F)F)cccc2[C@]1(c1ccc(O)cc1)c1ccc(OC(F)(F)F)cc1	5.82	21.5	15	28.8	14	29.8	12	24.4	6.6	7.73	23.9	14.4	27.6	10.1	22.7	12.6	28.2	3.95	16.3	39.8
